Several values for one entry are separate records, joined by “and”; a condition that tells them apart may be missing. Equal values may be shown once.
Columns and labels:
Nurr1-LBD [1] = target: T1, Nurr1-LBD (Mus musculus, UniProt Q06219); assay: Luciferase reporter assay, Nurr1-LBD, SK-N-BE(2)C cells; assay type: cell-based; conditions: for Luciferase activity (fold): Fig. 1d
T1 construct: transfected with pCMV-fNurr1, pGAL-Nurr1(LBD), pGAL-Nor1(LBD) or pGAL-Nur77(LBD) and reporter construct; expressed in transfected cells; host or cells: SK-N-BE(2)C (human neuroblastoma), N27-A (rat dopaminergic), MN9D (murine dopaminergic)
T1 sequence (Q06219 360-595 limits assumed): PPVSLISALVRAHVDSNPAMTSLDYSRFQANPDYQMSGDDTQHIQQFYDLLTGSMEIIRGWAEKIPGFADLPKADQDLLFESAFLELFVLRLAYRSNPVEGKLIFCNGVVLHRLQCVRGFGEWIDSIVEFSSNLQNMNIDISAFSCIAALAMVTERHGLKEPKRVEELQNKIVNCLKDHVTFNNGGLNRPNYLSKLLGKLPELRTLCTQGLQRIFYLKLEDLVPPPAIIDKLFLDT
Source text: (§1) Nurr1 transactivity was normalized to β-galactosidase activity.

Nor1 = target: T2, Nor1 (Homo sapiens, UniProt Q92570); assay: Luciferase reporter assay, Nor1 LBD, SK-N-BE(2)C cells; assay type: cell-based; conditions: Fig. 1f; CQ 100 µM, 4A7C-301 20 µM, PGA1 10 µM
T2 construct: using LBD of NR4A subfamily members in SK-N-BE(2)C cells; expressed in transfected cells; host or cells: SK-N-BE(2)C
T2 sequence (Q92570 394-623 limits assumed): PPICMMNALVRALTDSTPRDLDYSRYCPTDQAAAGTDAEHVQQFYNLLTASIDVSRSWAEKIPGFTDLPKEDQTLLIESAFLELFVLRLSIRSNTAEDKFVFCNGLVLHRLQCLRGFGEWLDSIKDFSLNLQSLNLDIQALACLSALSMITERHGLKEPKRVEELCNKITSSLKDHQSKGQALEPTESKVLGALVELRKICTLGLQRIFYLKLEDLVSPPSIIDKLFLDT

Nurr1-LBD point mutants [2] = target: T3, Nurr1-LBD point mutants (Mus musculus, UniProt Q06219, I588A); assay: Luciferase assay with point-mutants of Nurr1-LBD, SK-N-BE(2)C cells;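 note: Firefly luciferase normalized to beta-galactosidase activity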; assay type: cell-based; conditions: Fig. 1g, I588A
T3 construct: expressed in transfected cells; host or cells: SK-N-BE(2)C
T3 sequence (Q06219 whole entry I588A, the tested form may be a part): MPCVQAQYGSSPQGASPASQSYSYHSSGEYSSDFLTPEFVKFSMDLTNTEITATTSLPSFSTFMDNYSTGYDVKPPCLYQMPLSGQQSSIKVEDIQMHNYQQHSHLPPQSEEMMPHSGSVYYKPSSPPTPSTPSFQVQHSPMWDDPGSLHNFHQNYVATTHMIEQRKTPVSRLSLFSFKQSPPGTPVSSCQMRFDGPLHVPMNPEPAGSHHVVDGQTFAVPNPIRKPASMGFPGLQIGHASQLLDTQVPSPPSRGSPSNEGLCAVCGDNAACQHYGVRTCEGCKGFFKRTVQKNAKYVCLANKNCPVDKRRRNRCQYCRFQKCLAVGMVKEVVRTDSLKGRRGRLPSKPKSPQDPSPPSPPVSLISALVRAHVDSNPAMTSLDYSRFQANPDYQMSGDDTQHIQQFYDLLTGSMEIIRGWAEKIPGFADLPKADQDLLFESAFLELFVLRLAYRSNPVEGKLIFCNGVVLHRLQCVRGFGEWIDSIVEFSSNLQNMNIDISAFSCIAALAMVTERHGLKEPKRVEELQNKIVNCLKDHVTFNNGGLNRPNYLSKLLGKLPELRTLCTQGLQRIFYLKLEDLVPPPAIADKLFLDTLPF
Description: as §1
(§2) Nurr1 mutants were generated using the QuikChange ǁ XL site-directed mutagenesis kit (Agilent Technologies) according to the manufacturer’s instruction. Mutagenesis reactions were carried out on the plasmid of mouse Nurr1 cloned into pcDNA3.1 backbone, and then verified by sequencing.

Nurr1-LBD point mutants [3] = target: T4, Nurr1-LBD point mutants (Mus musculus, UniProt Q06219, S441A); assay: as above; assay type: cell-based; conditions: Fig. 1g, S441A
T4 construct: expressed in transfected cells; host or cells: SK-N-BE(2)C
T4 sequence (Q06219 whole entry S441A, the tested form may be a part): as the sequence (Q06219 whole entry I588A, the tested form may be a part) above, with S441A, A588I counted along it
Description: as §1, §2

Nurr1-LBD [4] = target: Nurr1-LBD (Homo sapiens, UniProt P43354); assay: [3H]-CQ radioligand competition binding assay
Nurr1-LBD (Homo sapiens, UniProt P43354), sequence (P43354 360-595 limits assumed, species assumed): as the sequence (Q06219 360-595 limits assumed) above
Description: Saturation and competition assays were performed as previously described. For saturation assay, 0.2 µM of Nurr1-LBD and 125-10,000 nM of [^3H]-CQ were incubated in binding buffer (20 mM sodium acetate buffer (pH 5.2)) at 4 °C overnight. […] Assay mixtures were applied to GF/B filters (Brandel Inc.) to capture Nurr1-LBD bounded ligands. […] All graphs and IC50 values were generated using the non-linear regression program in GraphPad Prism version 8.0.2.

MN9D cells = assay: Cell viability, MTT reduction, MPP+-treated MN9D cells; assay type: cell-based, mouse
Description: Cell viability was determined using 3-(4,5-dimethylthiazol-2-yl)-2,5-diphenyltetrazolium bromide (MTT) as previously described[60]. Briefly, cells were incubated with 5 mg/ml of MTT (Sigma-Aldrich) solution for 3.5 h at 37 °C. MTT formazan crystals were dissolved in 10 times the volume of MTT solvent (4 mM HCl and 0.1% Nonidet P-40 in isopropanol) and the absorbance from the generated blue formazan was measured at 570 nm after 15 min incubation at room temperature. Cell viability was calculated as a percentage (%) of MTT reduction relative to vehicle control.

TH+ neurons = assay: Primary rat VM neuron-glia co-culture, TH+ neurons (ICC); assay type: cell-based
Description: After blocking with 10% normal donkey serum (NDS) and 0.1% Triton X-100 solution for 1 h at room temperature, cells were incubated with primary antibodies against TH (1:1,000; Pel Freez, P40401) and Iba-1 (1:500; Abcam, ab5076) in 1% NDS and 0.1% Triton X-100 solution for overnight at 4 °C. […] Fluorescence images were taken using a KEYENCE microscope (BZ-X800; KEYENCE).

N27-A cells [5] = assay: Autophagolysosome (APL) formation assay, mRFP-GFP-LC3, N27-A cells; assay type: cell-based, rat; conditions: Figure 3b; mRFP-GFP-LC3; individual cells (30 per treatment)
Description: HeLa and N27-A cells were transfected with tandem mRFP-GFP-LC3 (Addgene) plasmid using Lipofectamine 2000 (Invitrogen) in 24-well plates. After 24 h, cells were incubated in starvation medium (Earle’s Balanced Salt Solution, EBSS; Lonza) containing bafilomycin A1 (BafA1, 10 nM), CQ (20 µM), or 4A7C-301 (1 µM) for 6 h and then fixed with 4% formaldehyde for fluorescence detection. Images were taken using a KEYENCE microscope and red (mRFP) LC3 dots and yellow (mRFP+GFP) LC3 dots were counted from three independent wells for each treatment group. 10 cells were randomly selected and counted from each well and a total of 30 cells were analyzed for each treatment group in both HeLa and N27-A cells.

N27-A cells [6] = assay: Autophagic flux, Western blot LC3B and p62, N27-A cells; assay type: cell-based, rat; conditions: for Relative LC3B-II experession (normalized to β-actin): individual replicates; for autophagic flux (in words): N27-A
Description: Experiments were confirmed by duplicate measurements of the same sample. Quantification of immunoreactive bands was performed using ImageJ software (NIH, Bethesda, MD, USA) and expressed as a relative ratio against β-actin.
The band intensities were quantified using ImageJ and normalized against β-actin.

[7] = tested on: AAV-αSyn-induced male mice; assay: Olfactory discrimination test, AAV-αSyn-induced PD model mice; assay type: in vivo, mouse
Source text: Adeno-associated viruses (AAVs) expressing GFP only or αSyn (wild-type or A53T) were kindly provided by Dr. Yoon Seong Kim from the University of Central Florida. Recombinant AAV vectors were produced using modified pAAV-IRES-hrGFP (Agilent) to express wild-type and mutant human αSyn under control of the CMV promoter. Viral particles (AAV2) were produced at the University of Iowa Viral Vector Core according to standard operating procedures (https://medicine.uiowa.edu/vectorcore/). […] AAV vectors were delivered into the substantia nigra unilaterally by stereotaxic surgery.
The olfactory discrimination test was designed based on Prediger et al.. Briefly, mice were placed in a chamber (40 (w) × 20 (d) × 20 (h) cm) segmented with two identical compartments containing fresh sawdust (non-familiar odor) on one side and unchanged sawdust (familiar odor; maintained for 3 days before the test) on the other side. Mice could choose between one or another area by freely passing through an open door, for 5 min. Mice movements were monitored with EthoVision XT version 7.0 (Noldus) and time (s) and distance (cm) traveled in each compartment were recorded and analyzed.

CCN1CCN(c2cc(N3CCN(CC)CC3)nc(NCCNc3ccnc4cc(Cl)ccc34)n2)CC1 [4A7C-301, N^1-(4,6-bis(4-ethylpiperazin-1-yl)pyrimidin-2-yl)-N^2-(7-chloroquinolin-4-yl)ethane-1,2-diamine]
Luciferase activity (fold), Nurr1 (Nurr1-LBD [1]; Fig. 1f, CQ 100 µM, 4A7C-301 20 µM): 16.1033 fold and 17.0687 fold and 15.1126 fold
Luciferase activity (fold) (Nurr1-LBD [1]; 0.1 µM): 1.566 fold and 1.556 fold and 1.583 fold
Luciferase activity (fold) (Nurr1-LBD [1]; 1 µM): 2.853 fold and 2.913 fold and 2.848 fold
Luciferase activity (fold) (Nurr1-LBD [1]; 10 µM): 8.938 fold and 9.512 fold and 11.2109 fold
Luciferase activity (fold) (Nurr1-LBD [1]; 20 µM): 17.8435 fold and 18.5652 fold and 17.952 fold
EC50 (Nurr1-LBD [1]; Nurr1-LBD and full-length Nurr1, SK-N-BE(2)C cells, Fig. 1d,e): 7 to 8 µM
Maximum fold activity (Nurr1-LBD [1]; Nurr1 activation, Supplementary Table 1): 18.12 ± 3.02 fold and 18.12 fold
EC50 (Nurr1-LBD [1]; Nurr1 activation, Supplementary Table 1, values in µM): 6.53 µM
Luciferase activity (fold), Nor1 (Nor1): 3.28 fold and 3.108 fold and 3.492 fold
Luciferase activity (fold) (Nurr1-LBD point mutants [2]): 2.735 fold and 2.747 fold and 2.797 fold and 2.7361 fold
Luciferase activity (fold) (Nurr1-LBD point mutants [3]): 8.067 fold and 8.586 fold and 8.69 fold and 8.14 fold
% of Specific binding (Nurr1-LBD [4]; Fig. 1h, competitor conc. 0.0001 (µM)): 97.5500% and 87.3600% and 114.0900%
% of Specific binding (Nurr1-LBD [4]; Fig. 1h, competitor conc. 0.001 (µM)): 93.3315% and 98.5361% and 111.1323%
% of Specific binding (Nurr1-LBD [4]; Fig. 1h, competitor conc. 0.01 (µM)): 98.5241% and 100.1201% and 98.1018%
% of Specific binding (Nurr1-LBD [4]; Fig. 1h, competitor conc. 0.1 (µM)): 94.8655% and 104.0393% and 99.1513%
% of Specific binding (Nurr1-LBD [4]; Fig. 1h, competitor conc. 1 (µM)): 96.7105% and 99.4183% and 101.5113%
% of Specific binding (Nurr1-LBD [4]; Fig. 1h, competitor conc. 10 (µM)): 93.5241% and 103.1201% and 98.1018%
% of Specific binding (Nurr1-LBD [4]; Fig. 1h, competitor conc. 100 (µM)): 102.0642% and 94.9839% and 98.3253%
% of Specific binding (Nurr1-LBD [4]; Fig. 1h, competitor conc. 1000 (µM)): 95.6857% and 99.8470% and 98.1514%
% of Specific binding (Nurr1-LBD [4]; Fig. 1h, competitor conc. 10000 (µM)): 97.6484% and 92.6051% and 102.8033%
% of Specific binding (Nurr1-LBD [4]; Fig. 1h, competitor conc. 100000 (µM)): 94.7542% and 97.7292% and 100.6669%
% of Specific binding (Nurr1-LBD [4]; Fig. 1h, competitor conc. 1000000 (µM)): 94.8500% and 98.0088% and 99.1887%
IC50 (Nurr1-LBD [4]; competition with [3H]-CQ, Fig. 1h): 0.0482 µM and 0.05 µM
binding affinity for Nurr1-LBD relative to CQ (Nurr1-LBD [4]; from radioligand and TR-FRET IC50s): 20 fold and ~ 20 fold
MTT reduction (%) (MN9D cells; Fig. S1f, with MPP+, conc. 0.1 µM, replicates): 55.1664% and 54.641% and 56.7426%
MTT reduction (%) (MN9D cells; Fig. S1f, with MPP+, conc. 0.5 µM, replicates): 58.8441% and 58.3187% and 60.4203%
MTT reduction (%) (MN9D cells; Fig. S1f, with MPP+, conc. 1 µM, replicates): 62.5219% (2×) and 61.4711%
MTT reduction (%) (MN9D cells; Fig. S1f, with MPP+, conc. 5 µM, replicates): 60.9457% and 62.5219% and 63.0473%
MTT reduction (%) (MN9D cells; Fig. S1f, with MPP+, conc. 10 µM, replicates): 61.9965% and 61.4711% and 63.0473%
MTT reduction (%) (MN9D cells; Fig. S3c, with MPP+, 0.1 µM): 54.8913% and 57.0652% and 55.4348%
MTT reduction (%) (MN9D cells; Fig. S3c, with MPP+, 0.5 µM): 59.2391% and 59.7826% and 60.3261%
MTT reduction (%) (MN9D cells; Fig. S3c, with MPP+, 1 µM): 63.0435% and 64.1304% and 62.5%
MTT reduction (%) (MN9D cells; Fig. S3c, with MPP+, 5 µM): 63.587% and 61.9565% and 64.6739%
MTT reduction (%) (MN9D cells; Fig. S3c, with MPP+, 10 µM): 63.587% and 61.9565%
MTT reduction (%) (MN9D cells; Fig. S3e, MPP+, Control, CQ 100 µM, 4A7C-301 1 µM): 68.2632% and 62.1053% and 68.2105% and 63.0526%
MTT reduction (%) (MN9D cells; Fig. S3e, MPP+, Nurr1 KD, CQ 100 µM, 4A7C-301 1 µM): 31.8421% and 30.5263% and 31.5789% and 29.7368%
MTT reduction (%) (MN9D cells; Fig. S3e, MPP+, Nurr1 OE, CQ 100 µM, 4A7C-301 1 µM): 85.4211% and 91.8947% and 89.4737% and 88.2632%
concentration of maximal effect on mDAN rescue (TH+ neurons; MPP+ or LPS): 500 nM
concentration of maximal effect, times lower than CQ (TH+ neurons; mDAN rescue): 40 times
LC3 dots/cell, Red LC3 dots (N27-A cells [5]): 22 dots/cell (5×) and 32 dots/cell and 15 dots/cell and 27 dots/cell (6×) and 21 dots/cell (4×) and 26 dots/cell (2×) and 34 dots/cell and 31 dots/cell (2×) and 19 dots/cell (3×) and 12 dots/cell and 17 dots/cell (2×) and 16 dots/cell and 20 dots/cell
LC3 dots/cell, Yellow LC3 dots (N27-A cells [5]): 9 dots/cell (2×) and 10 dots/cell (3×) and 16 dots/cell (2×) and 11 dots/cell (4×) and 20 dots/cell (2×) and 3 dots/cell (2×) and 4 dots/cell (2×) and 5 dots/cell (3×) and 15 dots/cell and 17 dots/cell and 14 dots/cell (3×) and 6 dots/cell (2×) and 7 dots/cell and 2 dots/cell and 12 dots/cell
Relative LC3B-II experession (normalized to β-actin) (N27-A cells [6]; Figure 3f, w/ MPP+, 0h): 0.779 and 0.690 and 0.799
Relative LC3B-II experession (normalized to β-actin) (N27-A cells [6]; Figure 3f, w/ MPP+, 4h): 1.160 and 0.971 and 1.153
Relative LC3B-II experession (normalized to β-actin) (N27-A cells [6]; Figure 3f, w/o MPP+, 0h): 0.728 and 0.654 and 0.714
Relative LC3B-II experession (normalized to β-actin) (N27-A cells [6]; Figure 3f, w/o MPP+, 4h): 0.866 and 0.789 and 0.873
Relative LC3B-II experession (normalized to β-actin) (N27-A cells [6]; Figure 3g, w/ MPP+, 0h): 1.116 and 1.094 and 1.285
Relative LC3B-II experession (normalized to β-actin) (N27-A cells [6]; Figure 3g, w/ MPP+, 4h): 0.639 and 0.745 and 0.861
Relative LC3B-II experession (normalized to β-actin) (N27-A cells [6]; Figure 3g, w/o MPP+, 0h): 1.157 and 1.166 and 1.326
Relative LC3B-II experession (normalized to β-actin) (N27-A cells [6]; Figure 3g, w/o MPP+, 4h): 0.499 and 0.504 and 0.579
autophagic flux (in words) (N27-A cells [6]; MPP+ 1 mM): significantly restored autophagy
autophagic flux (in words) (N27-A cells [6]; without MPP+): proceeded
olfactory dysfunction (in words) ([7]; αSynA53T-mice): significantly reversed
olfactory dysfunction (in words) ([7]; αSynWT-mice, 6 and 8 weeks after surgery): rescued olfactory dysfunction
